In patent US10682340B2, “Depot formulations” (DURECT CORPORATION, priority 2016, dated 2020):
≈ marks a conversion by molar mass, not a printed value. Like-named read-outs stand apart in the source and are kept apart here.

Assay: Solubility of sirolimus in aqueous media, solvents and benzyl benzoate/ethanol mixtures
Format: physicochemical

## CO[C@H]1C[C@@H]2CC[C@@H](C)[C@@](O)(O2)C(=O)C(=O)N2CCCC[C@H]2C(=O)O[C@H]([C@H](C)C[C@@H]2CC[C@@H](O)[C@H](OC)C2)CC(=O)[C@H](C)/C=C(\C)[C@@H](O)[C@@H](OC)C(=O)[C@H](C)C[C@H](C)/C=C/C=C/C=C/1C [Sirolimus, sirolimus]
PBS with 0.1% SDS, aqueous with cosolvent or surfactant or cyclodextrin, PBS, 0.1% SDS, pH 7.4, ambient temperature, read-out: Solubility
  solubility: 0.23 mg/mL (≈ 0.252 mM)
PBS, pH 7.4, ambient temperature
  solubility: Not detected
Benzyl benzoate/ethanol mixture, organic solvent or mixture, BB/EtOH Ratio 7, room temperature, read-out: Solubility in Benzyl Benzoate/Ethanol
  solubility: 163 mg/mL
Benzyl benzoate/ethanol mixture, organic solvent or mixture, BB/EtOH Ratio 9, room temperature, read-out: Solubility in Benzyl Benzoate/Ethanol
  solubility: 125 mg/mL
Benzyl benzoate/ethanol mixture, organic solvent or mixture, BB/EtOH Ratio 16, room temperature, read-out: Solubility in Benzyl Benzoate/Ethanol
  solubility: 90.1 mg/mL
Benzyl benzoate/ethanol mixture, organic solvent or mixture, BB/EtOH Ratio 18, room temperature, read-out: Solubility in Benzyl Benzoate/Ethanol
  solubility: 85.6 mg/mL
Oil or lipid, Castor oil, ambient temperature, read-out: Solubility
  solubility: 3 mg/mL (≈ 3.28 mM)
Organic solvent or mixture, Benzyl alcohol (BA), ambient temperature, read-out: Solubility
  solubility: ≥ 387 mg/mL
Organic solvent or mixture, Benzyl benzoate (BB), ambient temperature, read-out: Solubility
  solubility: 37 mg/mL (≈ 40.5 mM)
Organic solvent or mixture, Dimethyl sulfoxide (DMSO), ambient temperature, read-out: Solubility
  solubility: ≥ 243 mg/mL
Organic solvent or mixture, Ethanol (EtOH), ambient temperature, read-out: Solubility
  solubility: 48.5 mg/mL (≈ 53.1 mM)
Organic solvent or mixture, N methyl-2 Pyrrolidone (NMP), ambient temperature, read-out: Solubility
  solubility: ≥ 284 mg/mL
Organic solvent or mixture, PEG 400, ambient temperature, read-out: Solubility
  solubility: 10.7 mg/mL (≈ 11.7 mM)
Organic solvent or mixture, Propylene glycol, ambient temperature, read-out: Solubility
  solubility: 11.8 mg/mL (≈ 12.9 mM)
